US7348153B2, “Method for identifying and designing immunogenic peptides” (Health Research, Inc., priority 2004, dated 2008)
Marks after values point to notes of the source that are not given here.

What was measured:
Assay type in all cases: cell-based, human
[1] = tested on: PBMCs from melanoma patients; test: PBMC proliferation assay (tritiated thymidine incorporation); details: for stimulation index: both peptides
Procedure: For proliferation assays, PBMCs were cultured in tetra-triplicate in 96-well flat-bottomed microtiter plates (Costar Corp., Cambridge, Mass.) at the concentration of 2×10^5 cells/well in 100 μl of complete RPMI 1640 containing L-glutamine and 10% fetal bovine serum. […] PBMCs were cultured for 6 days at 37° C. in a 5% CO2 atmosphere before addition of tritiated thymidine at a concentration of 1 μCi/well. Results are expressed as cpm of tritiated thymidine incorporated and as a stimulation index (Hogan et al. J Immunol 1989; 142:2097-104). The latter is the average cpm of lymphocytes cultured with peptide divided by the average cpm of lymphocytes cultured without peptide. […] After 5 additional days of culture at 37° C. cells were washed, replated, and restimulated at a 1:1 stimulator to responder ratio with irradiated (30 Gy) autologous PBMC stimulators and peptides at concentrations of 5, 25, and 50 μg/ml. IL-2 was added after 96 h, and cells were cultured for an additional 5 days at 37° C., after which they were restimulated for an additional 10 days at 37° C. Lymphocytes stimulated over three cycles were collected and used as effectors in a cytotoxicity (CTL) assay.

[2] = tested on: PBMCs from melanoma patients; test: IFN-γ and IL-10 release by peptide-stimulated PBMC (double sandwich ELISA); details: for IL-10 levels after restimulation / IFN-γ levels: HLA-A2+ patient 6, 2° STIM, 25 μg/ml; for IFN-γ levels: comparison between peptides (P>0.05); for IFN-γ:IL-10 ratio: 2° STIM; for average IFN-γ levels after 2° STIM: peptides 25 μg/ml
Procedure: Interaction of T cells with Ag can induce a few cycles of division resulting in Ag-primed uncommitted T cells or can induce T cells to differentiate and gain effector function. The effector function is best characterized by the ability of Ag-stimulated T cells to secrete Th1 cytokines and to mediate lysis of specific targets. To determine whether T cells from immunized patients acquired cytokine effector function, IFN-γ and IL-10 were measured in supernatants harvested from PBMC cultures stimulated with I-100 and I-102 peptides. To measure cytokine release, supernatants were collected at 24, 48, and 72 h after primary and secondary stimulation with 5, 25, and 50 μg/ml of peptides and stored frozen at −20° C. IFN-γ and IL-10 levels were measured by a double sandwich ELISA using the corresponding kits supplied by Biosource International. Assays were calibrated with human recombinant IFN-γ and IL-10 to detect each cytokine in a range of 15-1000 pg/ml.
IL-10 was assayed instead of IL-4 as a representative Th2 cytokine, because the PBMCs used as responders were from patients with melanoma. Therefore, they might contain regulatory cells. Patient 6 had supernatants saved from two separate experiments. […] Because after priming, all of the stimulated PBMCs were expanded in IL-2, we determined the effect of culturing PBMCs in IL-2 on IFN-γ induction.

[3] = tested on: T2 cells pulsed with peptide; test: 51Cr release CTL assay against peptide-pulsed T2 cells; details: for lysis of T2-I-100 by peptide-stimulated CTL: immunized HLA-A2+ patients 1 and 6, E:T 30:1, 4 hour 51Cr release; for lysis of T2 cells pulsed with the stimulating peptide by peptide-stimulated CTL: nonimmunized HLA-A2+ patient 4, E:T 30:1, 4 hour; for lysis of T2-I-100 and T2-I-102 targets by peptide-stimulated lymphocytes: nonimmunized HLA-A2− patient 5
From the text: FIGS. 5A-5E are graphical representations of cytolytic activity of NP, I-100 and I-102-CTL from HLA-A2 immunized patients # 1 and # 6 (FIGS. 5A and 5B, respectively) and from HLA-A2, non-immunized patient # 4 (FIG. 5C) against T2-NP (▪) and T2-I-100 (□) targets. FIG. 5D depicts lytic activity of NP- and I-102-CTL from HLA-A2^− patient #3 against T2-NP (▪) and T2-I-100 (□) targets. FIG. 5E depicts CTL lysis by NP-, I-100-, and I-102-CTL effectors from […] patient #5 against T2-I-100 targets. The E:T ratio was 30:1 in a 4 hour 51Cr release assay; bars, ±S D.
For proliferation assays, PBMCs were cultured in tetra-triplicate in 96-well flat-bottomed microtiter plates (Costar Corp., Cambridge, Mass.) at the concentration of 2×10^5 cells/well in 100 μl of complete RPMI 1640 containing L-glutamine and 10% fetal bovine serum. Peptides I-100 and I-101 were added at 5, 25, and 50 μg/ml in serum-free RPMI 1640 up to a total volume of 200 μl. PBMCs were cultured for 6 days at 37° C. in a 5% CO2 atmosphere before addition of tritiated thymidine at a concentration of 1 μCi/well. Results are expressed as cpm of tritiated thymidine incorporated and as a stimulation index (Hogan et al. J Immunol 1989; 142:2097-104). The latter is the average cpm of lymphocytes cultured with peptide divided by the average cpm of lymphocytes cultured without peptide. […] Peptide-specific T cells were propagated by adding recombinant interleukin (IL)2 (90 IU/ml; Biosource International, Camarillo, Calif.) to PBMCs that had been cultured for 96 h at 37° C. with peptides. After 5 additional days of culture at 37° C. cells were washed, replated, and restimulated at a 1:1 stimulator to responder ratio with irradiated (30 Gy) autologous PBMC stimulators and peptides at concentrations of 5, 25, and 50 μg/ml. IL-2 was added after 96 h, and cells were cultured for an additional 5 days at 37° C., after which they were restimulated for an additional 10 days at 37° C. Lymphocytes stimulated over three cycles were collected and used as effectors in a cytotoxicity (CTL) assay.
(§1) To determine the effects of the immunization with […] on activation of melanoma cell-lytic CTLs, we compared the responses of immunized HLA-A2^+ patients 1 and 6 with that of nonimmunized HLA-A2^+ patient 4. As specificity and restriction control we analyzed the responses of nonimmunized HLA-A2^− patients 3 and 5. All of the CTLs were tested for their ability to lyse T2 cells pulsed with the stimulating peptide and A375sm melanoma cells. Lymphocytes collected after three rounds of peptide stimulation were tested for their ability to lyse ^51Cr-labeled targets as described previously (Fisk, et al. J Exp Med 1998;181:2109-17; Murray, et al. Clin Cancer Res 2002;11:3407-18). […] Cold target inhibition of tumor cell lysis experiments was performed as described (Murray, et al. Clin Cancer Res 2002;11:3407-18).

[4] = tested on: A375SM melanoma cells; test: 51Cr release CTL assay against A375SM melanoma cells; details: for lysis of A375SM cells by peptide-stimulated PBMCs: immunized HLA-A2+ patient 1
Procedure: NP-, I-100, and I-102 on the abscissa indicate corresponding CTL effectors. NP-CTL indicates CTL stimulated by T2 cells and IL-2 without addition of peptides. […] The E:T ratio was 20:1 in a 20 h ^51Cr release assay. FIG. 6C depicts the kinetics of A375SM melanoma cell lysis by NP-CTL (∘), I-100-CTL (●), and I-102-CTL (▴). CTL were incubated with target cells for up to 20 h.
as §1
To determine whether in vitro stimulation with peptides generated CTLs that recognized epitopes on HMW-MAA^+/HLA-A2^+ melanoma cells, PBMCs from immunized HLA-A2^+ patients 1 and 6 were stimulated with I-100 and 1-102 peptides and then tested for their ability to lyse A375SM melanoma cells. […] Therefore, these effectors were designated as I-100 CTL and I-102 CTL, respectively.

[5] = patient 8, −/+, 1° STIM up to 6 days
[6] = HLA-A2+ patients 1, 2 and 6 immunized with MELIMMUNE
[7] = HLA-A2− patients 3, 5, 9 and 10 not immunized
[8] = patient 1, HLA-A2 phenotype/immunization +/+, 1° STIM up to 6 days
[9] = patient 2, +/+, 1° STIM up to 6 days
[10] = patient 3, HLA-A2 −, 1° STIM up to 6 days
[11] = patient 4, +/−, 1° STIM up to 6 days
[12] = patient 5, HLA-A2 −, 1° STIM up to 6 days
[13] = patient 6, +/+, 1° STIM up to 6 days
[14] = patient 7, −/+, 1° STIM up to 6 days
[15] = patient 9, −/−, 1° STIM up to 6 days
[16] = patient 10, −/−, 1° STIM up to 6 days
[17] = PBMCs from HLA-A2+ patient 6 and four HLA-A2− patients, preliminary experiments

Substance | tritiated thymidine incorporated [1, 5] [cpm] | stimulation index [1, 6] | stimulation index [1, 7] | S.I. (stimulation index) [1, 8] | tritiated thymidine incorporated [1, 8] | S.I. (stimulation index) [1, 9] | S.I. (stimulation index) [1, 10] | S.I. (stimulation index) [1, 11] | S.I. (stimulation index) [1, 12] | S.I. (stimulation index) [1, 13] | tritiated thymidine incorporated [1, 13] | S.I. (stimulation index) [1, 14] | tritiated thymidine incorporated [1, 14] [cpm] | S.I. (stimulation index) [1, 5] | S.I. (stimulation index) [1, 15] | tritiated thymidine incorporated [1, 15] [cpm] | S.I. (stimulation index) [1, 16] | tritiated thymidine incorporated [1, 16] [cpm] | IL-10 levels after restimulation [2] [pg/mL] | IFN-γ levels [2] | further results
E71: inactive HLA-A2 epitope from HER-2/neu protein, HER-2 (828-836) (QIAKGMSYL; UniProt P04626 828-836, looked up, fragment) [Peptide E71, reference compound] | 685±103 | – | – | – | – | – | – | – | – | – | – | – | – | – | – | – | – | – | – | – | tritiated thymidine incorporated ([1]; lymphocytes from HLA-A2+ immunized patients 1, 2 and 6 (NP=353±84 cpm)): 411±190 cpm
LLQLGYSGRL (designed peptide) [Peptide I-102] | 650 ± 31 | 2.7±0.7 | 1.2±0.4 | (3.3) | 1519 ± 92^a cpm | (3.0) | (1.4) | (1.7) | (2.0) | (2.8) | 1464 ± 53^a cpm | (1.2) | 755 ± 56 | (1.2) | (0.9) | 425 ± 40 | (1.0 | 200 ± 20 | 212 ± 24 | similar | IFN-γ:IL-10 ratio ([2]; HLA-A2+ patients): 3.96; IFN-γ:IL-10 ratio ([2]; HLA-A2− patients): 0.97; IL-10 after 2° STIM ([2]; PBMCs from HLA-A2+ patients): 155.7 ± 36.3 pg/mL; average IFN-γ levels after 2° STIM ([2]; PBMCs from HLA-A2+ patients): 616.1 ± 86.3 pg/mL; IL-10 after 2° STIM ([2]; PBMCs from HLA-A2− patients): 61.1 ± 25 pg/mL; lysis of T2-I-100 by peptide-stimulated CTL [3]: to a significantly greater extent than control targets T2-NP; lysis of T2 cells pulsed with the stimulating peptide by peptide-stimulated CTL [3]: lysed T2-I-102; lysis of T2-I-102 targets by peptide-stimulated CTL ([3]; nonimmunized HLA-A2− patient 3, compared with T2-NP): no specific lysis; lysis of T2-I-100 and T2-I-102 targets by peptide-stimulated lymphocytes [3]: unable to specifically lyse; lysis of A375SM cells by peptide-stimulated PBMCs [4]: effectively lysed A375SM cells; increase of lysis of A375SM cells from 5 h to 20 h ([4]; peptide-stimulated CTL, kinetics of lysis): 59%
LLQLYSGRL (human; HMW-MAA) [Peptide I-101] | – | – | – | – | – | – | – | – | – | – | – | – | – | – | – | – | – | – | – | – | stimulation of proliferation [1, 17]: did not stimulate; stimulation of IFN-γ and IL-10 secretion [2, 17]: did not stimulate
LLVLLYSKL (mouse; mAb MF11-30) [Peptide I-100] | 490 ± 54 | 2.7±0.7 | 1.2±0.4 | (2.5) | 1123 ± 240^a cpm | (3.3) | (1.1) | (1.5) | (1.7) | (3.1) | 1793 ± 58^a cpm | (1.1) | 652 ± 77 | (0.9) | (0.7) | 334 ± 26 | (0.9) | 184 ± 12 | 86 ± 11 | similar | tritiated thymidine incorporated [1, 10]: 655 ± 51 cpm; IFN-γ and IL-10 levels ([2]; HLA-A2+ patient 6 and HLA-A2− patient 7, after 1° STIM): low; IFN-γ:IL-10 ratio ([2]; HLA-A2+ patients): 3.96; IFN-γ:IL-10 ratio ([2]; HLA-A2− patients): 0.97; IL-10 after 2° STIM ([2]; PBMCs from HLA-A2+ patients): 155.7 ± 36.3 pg/mL; average IFN-γ levels after 2° STIM ([2]; PBMCs from HLA-A2+ patients): 616.1 ± 86.3 pg/mL; IL-10 after 2° STIM ([2]; PBMCs from HLA-A2− patients): 61.1 ± 25 pg/mL; lysis of T2-I-100 by peptide-stimulated CTL [3]: to a significantly greater extent than control targets T2-NP; lysis of T2 cells pulsed with the stimulating peptide by peptide-stimulated CTL [3]: did not lyse T2-I-100; lysis of T2-I-100 and T2-I-102 targets by peptide-stimulated lymphocytes [3]: unable to specifically lyse; lysis of A375SM cells by peptide-stimulated PBMCs [4]: effectively lysed A375SM cells
